The text below walks through data of PubChem BioAssay AID743334 (Broad Institute, 2014).

Each structure is given as a SMILES string. Calls of active or inactive are those of the source.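 The calls were made as follows: active = curve reaches 40% rise within the top valid dose, in every run; inconclusive = runs give conflicting calls; inactive = opposite-direction activity, or every run inactive.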 Some results are limits rather than exact numbers.

For one assay, the system named is C2C12 myotubes ATP, CellTiter-Glo luminescence, 48 h. Description: ATP change in C2C12 myotubes without statin, dose response, counter-screen for statin myotoxicity suppressor project, cell-based, no simvastatin, luminescence, dry powder (AID 743334).
Conditions: not given
On the technique in general: The purpose of a counterscreen is to sort out artefacts and off-target activity.
Take `C[C@H]1CN([C@@H](C)CO)C(=O)Cc2cc(NC(=O)CCCCCC(=O)Nc3ccccc3N)ccc2O[C@H]1CN(C)Cc1ccccc1`: the AC40 was 18 µM (inactive). Same read-out and setting: the figure for `COc1ccc(S(=O)(=O)Nc2ccc3c(c2)CC(=O)N([C@H](C)CO)C[C@H](C)[C@@H](CN(C)Cc2ccc(Cl)c(Cl)c2)O3)cc1` is > 19.5 µM (inactive); for `C[C@@H]1CN([C@@H](C)CO)C(=O)c2cc(NC(=O)Nc3cccc4ccccc34)ccc2O[C@@H]1CN(C)Cc1ccc(C(=O)Nc2ccccc2N)cc1` it is > 21 µM (inactive).

As to `COc1ccc(CN(C)C[C@H]2Oc3ccc(NS(=O)(=O)c4ccc(Cl)cc4)cc3CC(=O)N([C@@H](C)CO)C[C@@H]2C)cc1`, the AC40 is > 19.5 µM (inactive). As to `N#C[C@@H]1[C@@H](c2ccc(-c3cccc(F)c3)cc2)[C@H](CO)N1C(=O)NC1CCCC1`, the AC40 is > 21 µM (inactive). Regarding `C[C@H]1CN([C@@H](C)CO)C(=O)c2cc(NC(=O)Nc3cccc4ccccc34)ccc2O[C@H]1CN(C)Cc1ccc(C(=O)Nc2ccccc2N)cc1`, the AC40 was > 19.5 µM (inactive). Same read-out and setting: the figure for `C[C@H](CO)N1C[C@H](C)[C@H](CN(C)CC2CCCCC2)Oc2ccc(NC(=O)CCCCCC(=O)Nc3ccccc3N)cc2CC1=O` is > 19.5 µM (inactive); for `C[C@H](CO)N1C[C@H](C)[C@@H](CN(C)Cc2ccc(Cl)c(Cl)c2)Oc2ccc(NC(=O)C3CC3)cc2CC1=O` it is > 19.5 µM (inactive).

Turning to `C[C@H]1CN([C@@H](C)CO)C(=O)c2cc(C#Cc3ccncc3)cnc2O[C@@H]1CN(C)CC1CCCC1`, the AC40 was > 19.5 µM (inactive).

Tested on in a further assay: not listed separately
The description is as above. Particulars: C2C12 myotubes ATP, CellTiter-Glo luminescence, 48 h; at 19.5 µM (top of the series). Background: Cellular ATP, detected with luciferase, serves as a proxy for viable cell number.
With `C[C@H](CO)N1C[C@H](C)[C@@H](CN(C)Cc2ccc(Oc3ccccc3)cc2)Oc2c(NC(=O)Nc3cccc4ccccc34)cccc2C1=O`, the ATP level change, positive = increase was 8.68% (inactive). The same measure, in the same setting: with `N#C[C@@H]1[C@@H](c2ccc(-c3ccc(F)cc3)cc2)[C@H](CO)N1C(=O)Cc1ccccc1` the figure was 2.91% (inactive); with `C[C@@H]1CN([C@H](C)CO)C(=O)Cc2cc(NS(=O)(=O)c3ccc(Cl)cc3)ccc2O[C@H]1CN(C)Cc1ccccc1`, 13% (inactive); with `COc1ccc(S(=O)(=O)Nc2cccc3c2O[C@H](CN(C)C(=O)Nc2ccc(F)cc2)[C@H](C)CN([C@@H](C)CO)C3=O)cc1`, 14.4% (inactive).

Still in this assay, the particulars now being: C2C12 myotubes ATP, CellTiter-Glo luminescence, 48 h; at 21 µM (top of the series).
Take `CC(C)CC#Cc1cnc2c(c1)C(=O)N([C@H](C)CO)C[C@H](C)[C@@H](CN(C)C(=O)Cc1ccccc1)O2`: the ATP level change, positive = increase is 6.23% (inactive).

Staying with this assay, now noted: C2C12 myotubes ATP, CellTiter-Glo luminescence, 48 h; active compounds read high.
In the case of `COc1ccc(S(=O)(=O)Nc2ccc3c(c2)CC(=O)N([C@H](C)CO)C[C@@H](C)[C@H](CN(C)CC2CCCCC2)O3)cc1`, the max activity was -10.2% (inactive). Same read-out and setting: with `COc1ccc(-c2ccc([C@@H]3[C@@H](C#N)N(C(=O)NC4CCCC4)[C@H]3CO)cc2)cc1` the figure was 5.47% (inactive); with `N#C[C@H]1[C@H](c2ccc(-c3cccc(F)c3)cc2)[C@H](CO)N1C(=O)NC1CCCC1`, -7.45% (inactive); with `COc1ccc(C#Cc2cnc3c(c2)C(=O)N([C@H](C)CO)C[C@H](C)[C@H](CN(C)Cc2ccccc2)O3)cc1OC`, 15.6% (inactive). Same read-out and setting: the figure for `CCCNC(=O)N1[C@@H](C#N)[C@@H](c2ccc(-c3ccccc3F)cc2)[C@@H]1CO` is 6.49% (inactive); for `C[C@H](CO)N1C[C@H](C)[C@H](CN(C)Cc2ccc(C(=O)Nc3ccccc3N)cc2)Oc2ccc(NC(=O)Cc3cn(C)c4ccccc34)cc2C1=O` it is 12.2% (inactive); for `N#C[C@@H]1[C@@H](c2ccccc2-c2cccc(F)c2)[C@H](CO)N1C(=O)NC1CCCC1` it is 11.6% (inactive). `C[C@@H]1CN([C@@H](C)CO)C(=O)c2cc(NC(=O)Cc3cn(C)c4ccccc34)ccc2O[C@@H]1CN(C)Cc1ccc(C(=O)Nc2ccccc2N)cc1`: the max activity is 14.1% (inactive).

As to `C[C@H]1CN([C@@H](C)CO)C(=O)Cc2cc(NC(=O)CCCCCC(=O)Nc3ccccc3N)ccc2O[C@H]1CN(C)Cc1ccc(Oc2ccccc2)cc1`, the max activity is -10.2% (inactive). With `N#C[C@H]1[C@H](c2ccc(-c3cccc(F)c3)cc2)[C@@H](CO)N1C(=O)NC1CCCC1`, the max activity was 1.15% (inactive). Turning to `C[C@@H]1CN([C@H](C)CO)C(=O)c2cc(NC(=O)Cc3cn(C)c4ccccc34)ccc2O[C@H]1CN(C)Cc1ccc(C(=O)Nc2ccccc2N)cc1`, the max activity was 9.28% (inactive). On the same count and under the same terms, with `C[C@@H]1CN([C@H](C)CO)C(=O)Cc2cc(NC(=O)CCCCCC(=O)Nc3ccccc3N)ccc2O[C@H]1CN(C)Cc1ccc(Oc2ccccc2)cc1` the figure was -0.786% (inactive). Still for that read-out and setting: the figure for `N#C[C@@H]1[C@@H](c2ccc(C3=CCCCC3)cc2)[C@H](CO)N1C(=O)NC1CCCC1` is -9.58% (inactive).
